Source: ChEMBL document CHEMBL1128855, “Design and synthesis of an antitumor prodrug released by the reaction with sulfhydryl compounds” (Bioorg Med Chem Lett, 1995)
≈ marks a conversion by molar mass, not a printed value.

Experiments:
HeLa = assay: Cytotoxic activity against HeLa S3 cells; assay type: functional, cell-based; conditions: Homo sapiens
L1210 (1565) [1] = assay: Cytotoxic activity against L-1210 parental cell line; assay type: functional, cell-based, Mus musculus
L1210 (1565) [2] = assay: Cytotoxic activity against adriamycin (ADR) resistant L-1210 cell line; assay type: functional, cell-based, Mus musculus
[3] = Relative resistance value of Adriamycin resistant L-1210/L-1210 parental cell line; assay type: functional
L1210 (1565) [4] = assay: cytotoxic activity against adriamycin (ADR) resistant L-1210 cell line; assay type: functional, cell-based, Mus musculus

Compound | IC50 (HeLa) | IC50 (L1210 (1565) [1]) | IC50 (L1210 (1565) [2]) | Ratio [3] | IC50 (L1210 (1565) [4])
C/C=C/C(=O)OCC1=CCC(C)(C)CC1=O | 4.7 µg/mL (≈ 21.1 µM) | – | – | – | –
CC(=O)OCC1=CCC(C)(C)CC1=O | 23.5 µg/mL (≈ 120 µM) | – | – | – | –
COc1cccc2c1C(=O)c1c(O)c3c(c(O)c1C2=O)C[C@@](O)(C(C)=O)C[C@@H]3OC1CC(NC(=O)OCC2=CCC(C)(C)CC2=O)C(O)C(C)O1 (some centres undefined) | 0.0096 µg/mL (≈ 0.0136 µM) | 0.038 nM ml-1 | 0.14 nM ml-1 | 3.7 | –
CC1(C)CC=C(CO)C(=O)C1 | > 100 µg/mL | – | – | – | –
CC1(C)CC=C(CI)C(=O)C1 | 2.3 µg/mL (≈ 8.71 µM) | – | – | – | –
COc1cccc2c1C(=O)c1c(O)c3c(c(O)c1C2=O)C[C@@](O)(C(C)=O)C[C@@H]3O[C@H]1C[C@H](N)[C@H](O)[C@H](C)O1.Cl [DAUNORUBICIN HYDROCHLORIDE] | – | 0.016 nM ml-1 | 0.147 nM ml-1 | 9.2 | –
COc1cccc2c1C(=O)c1c(O)c3c(c(O)c1C2=O)C[C@@](O)(C(=O)CO)C[C@@H]3O[C@H]1C[C@H](N)[C@H](O)[C@H](C)O1 [DOXORUBICIN] | – | 0.022 nM ml-1 | – | 14.1 | 0.315 nM ml-1
